Measurements published in PubChem BioAssay (NCI).
Values joined by “and” are separate entries in the source; they are usually repeats but may differ in a detail not shown here. Equal values may be shown once.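 Values below derive from 48-hour exposures of cells grown in 96-well plates, with endpoints linearly interpolated between the two concentrations bracketing the appropriate inhibition level. At the GI50, growth is halved. TGI: concentration producing complete growth inhibition.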

These molecules were tested on MDA-MB-468 breast (assay: NCI tumour cell line growth inhibition, 48 h).
Cn1c([N+](=O)[O-])cnc1/C=C1\Oc2ccc(Br)cc2C1=O showed a GI50 of 1590 nM and a TGI of 4600 nM. Molecule CC(c1ccccc1)N1C(=O)CSC1=S (stereo unspecified) has a GI50 of 303 nM and a TGI greater than 100000 nM. NCCCNc1nc2ccccc2c2c(=O)c3cccc(F)c3sc12 showed a GI50 of 1620 nM and a TGI of 3240 nM. With COc1cc(C=C2c3ccccc3C(=O)c3ccccc32)ccc1OCCCCOc1cc2c(cc1OC)C(=O)N1CCCC1C=N2 (stereo unspecified) the GI50 was 287 nM and the TGI was 1190 nM. Work on COc1ccc(/C=C/C(=O)c2c(O)c(C)c(O)c3c2OC2=CC(O)=C(C(C)=O)C(=O)[C@]23C)cc1 yielded a GI50 of 1350 nM and a TGI of 5010 nM. Molecule CO[C@H]1/C=C/[C@@](C)(O)/C=C/C(=O)O[C@H](C)[C@@H](C)CC/C=C/1C has a GI50 of 8450 nM and a TGI of 31000 nM. O=C(c1ccc(Oc2ccccc2)cc1Cl)c1c[nH]c2ncnc(N[C@@H]3CC[C@@H](CO)OC3)c12 gave a GI50 of 1010 nM and a TGI of 3730 nM. With CCN(Cc1cc(F)cc(F)c1)c1ccc(CO)c(Cl)c1 the GI50 was 18.7 nM and the TGI was 50.5 nM. Work on N#Cc1cc(-c2ccnc(Nc3ccc(NC(=O)CCl)cc3)n2)ccc1N1CCCC1 yielded a GI50 of 3400 nM and a TGI of 7130 nM. With CCCCN1C=CCN(CCCC)C1 the GI50 was 18600 nM and the TGI was 61300 nM. CCC(=O)OCC1OC(n2cnc3c(=S)nc(N)[nH]c32)C(OC(=O)CC)C1OC(=O)CC (stereo unspecified) showed a GI50 of 1180 nM and a TGI of 7450 nM. Molecule COc1cc(C(=O)/C=C/c2c(-c3cccs3)nc3sccn23)cc(OC)c1OC has a GI50 of 930 nM and a TGI of 2890 nM. COC1=C(C)C(=O)N2[C@@H]1[C@H](c1ccccc1)OC21C=CC(=O)C=C1 gave a GI50 of 2540 nM and a TGI of 9240 nM. CCCCc1ccc(NS(=O)(=O)c2cc3c4c(c2)CCN4C(=O)CC3)cc1 gave a GI50 of 4500 nM and a TGI of 94200 nM. CCOC(=O)c1cc(C(=O)c2cc(OC)cc(OC)c2)n2nc(C)ccc12 showed a GI50 of 297 nM and a TGI greater than 100000 nM. For O=[N+]([O-])c1cc([N+](=O)[O-])c(NN=C(c2ccc(O)cc2)c2ccc(O)cc2)cc1Cl, the GI50 was 247 nM and the TGI was 550 nM. O=C(/C=C/c1c(-c2ccccc2)[nH]c2ccccc12)S(=O)(=O)c1ccccc1 gave a GI50 of 1980 nM and a TGI of 8750 nM. Work on COc1cc(Nc2ncc3c(C)nc(-c4cccc(C(F)(F)F)c4)n3n2)cc(OC)c1OC yielded a GI50 of 2810 nM and a TGI of 5980 nM. For Fc1ccc(-c2cc3nc(C(Cl)Cl)nc(-c4cccs4)n3n2)cc1, the GI50 was 219 nM and the TGI was 666 nM. Molecule COc1cc(/C=C/c2cc(/C=C/c3ccc(O)c(OC)c3)n(C(N)=O)n2)ccc1O has a GI50 of 298 nM and a TGI of 1520 nM. COc1cc(C2CC(c3ccc(SC)cc3)=NN2C(C)=O)cc(OC)c1OC (stereo unspecified) gave a GI50 of 3710 nM and a TGI of 26200 nM. Work on COc1ccc([C@H]2[C@H](O)C(=O)N2c2cc(OC)c(OC)c(OC)c2)cc1 yielded a GI50 of less than 10 nM and a TGI greater than 100000 nM. With COc1cc(Nc2cc(O)c3c(=O)cc(-c4ccccc4)oc3c2)cc(OC)c1 the GI50 was 279 nM. O=C1/C(=C/c2ccccc2[N+](=O)[O-])Oc2ccc(O)cc21 showed a GI50 of 1810 nM and a TGI of 3850 nM. Cc1ccc(N(CC(=O)Nc2ccc(S(=O)(=O)NC3CCN(C)CC3)cc2)S(=O)(=O)c2ccc(Cl)cc2)cc1 was tested, and the GI50 was 1910 nM and the TGI was 4000 nM. With Cc1ccc(NC(=O)c2ccc(CN3CC[C@H](N(C)C)C3)c(C(F)(F)F)c2)cc1Nc1nccc(-c2cncnc2)n1 the GI50 was 5050 nM and 7370 nM and the TGI was 18400 nM and > 10000 nM. With Oc1ccc(OCCOc2ccc(O)cc2)cc1 the GI50 was 32700 nM and the TGI was greater than 100000 nM. COc1cc(/C=C/[N+](=O)[O-])c([N+](=O)[O-])cc1OC showed a GI50 of 1020 nM and a TGI of 2300 nM. Cn1cc(-c2csc(-c3c[nH]c4ccc(F)cc34)n2)c2cccnc21 showed a GI50 of 1410 nM and a TGI of 5240 nM. COc1ccc(-c2cc(C(=O)N3N=C(c4ccc(N)cc4)CC3c3ccc(Cl)cc3)c3ccccc3n2)cc1 (stereo unspecified) gave a GI50 of 2950 nM and a TGI greater than 100000 nM. For O=C1NC(=O)/C(=C/c2ccc3ncccc3c2)S1, the GI50 was 9280 nM and the TGI was greater than 25000 nM. In the case of CN(C)CCCNc1nc2ccccc2c2c(=O)c3cc(F)ccc3sc12, the GI50 is reported as 675 nM and the TGI is reported as 2160 nM. COc1cc2c(Oc3ccc4[nH]c(C)cc4c3F)ncnc2cc1OCCCN1CCCC1 gave a GI50 of 1320 nM and a TGI of 3060 nM. For O=C1C(=O)/C(=C/c2ccccc2)CCCCCC/C1=C/c1ccccc1, the GI50 was 3620 nM and the TGI was 17700 nM. In the case of CO[C@@H](C)Cn1c(=O)n(C)c2cnc3ccc(-c4cncc(C(C)(C)O)c4)cc3c21, the GI50 is reported as 132 nM and 60.1 nM and the TGI is reported as 661 nM and 472 nM. With COc1cc(/C=C/c2cc(/C=C/c3ccc(O)c(OC)c3)n(C(=O)Cc3ccccc3)n2)ccc1O the GI50 was 1170 nM and the TGI was 4580 nM.
